The values below come from ChEMBL document CHEMBL1135056, “Differential inhibition of polymerase and strand-transfer activities of HIV-1 reverse transcriptase” (Bioorg Med Chem Lett, 2002).

The target in assay [1] is T1, Human immunodeficiency virus type 1 reverse transcriptase (Human immunodeficiency virus 1, UniProt Q72547). The assay can be described thus: Tested for its ability to inhibit HIV-1 reverse transcriptase strand transfer using wild type HIV-1-RT enzyme.
Assay [2] addresses T1, Human immunodeficiency virus type 1 reverse transcriptase. As to the kind of experiment: Inhibition of HIV-1 reverse transcriptase polymerization using wild type HIV-1-RT enzyme.
Assay [3] shares this target. As to the kind of experiment: Tested for its ability to inhibit HIV-1 reverse transcriptase polymerization using A17 double mutant HIV-1-RT enzyme.
The target is the same in assay [4]. As to the kind of experiment: Tested for its ability to inhibit HIV-1 reverse transcriptase strand transfer using A17 double mutant HIV-1-RT enzyme.

The term IC50 denotes the concentration at which inhibition is half-maximal. In the case of `O=C(OC1COc2cccc(O)c2C1)c1cc(O)c(O)c(O)c1` (centres undefined), the IC50 stood at 8.7 µM in assay [1], 45.5 µM in assay [2] and 64.7 µM in assay [3].

In the case of `O=C(OCCc1ccc(O)c(O)c1)c1cc(O)c(O)c(O)c1`, the IC50 in assay [1] worked out at 0.6 µM; in assay [4] it was 10.5 µM; in assay [2], 10.7 µM; in assay [3] it was 6.3 µM.

With `O=C(OC1COc2cc(O)cc(O)c2C1)c1cc(O)cc(O)c1` (centres undefined), it took 96.3 µM to reach half-maximal inhibition in assay [2] (IC50).

On to `O=C(OC1COc2cc(O)cc(O)c2C1)c1cc(O)c(O)c(O)c1` (centres undefined), for which the 50% inhibitory concentration (IC50) in assay [1] worked out at 6.2 µM; in assay [4], 5.5 µM; in assay [2] it was 3.8 µM.

`O=C(OCCc1ccccc1)c1cc(O)c(O)c(O)c1`: the IC50 in assay [1] amounted to 6.9 µM; in assay [2] it was 72.9 µM.

As for `O=C(OC1COc2cc(O)cc(O)c2C1)c1ccccc1` (centres undefined), the IC50 in assay [1], in assay [4], in assay [2] and in assay [3] was greater than 100 µM in each case.

Consider `O=C(OCCc1ccc(O)cc1)c1cc(O)c(O)c(O)c1`, for which the IC50 in assay [1] stood at 4.5 µM; in assay [2], 7.9 µM.

On to `O=C(OC1COc2cc(O)cc(O)c2C1)c1ccc(O)c(O)c1` (centres undefined), for which the IC50 is greater than 100 µM in assay [1], greater than 100 µM in assay [4], 37.2 µM in assay [2] and greater than 100 µM in assay [3].

For `COc1cc(OC)c2c(c1)OCC(OC(=O)c1cc(O)c(O)c(O)c1)C2` (centres undefined), the 50% inhibitory concentration (IC50) in assay [1] is 0.9 µM; in assay [4], 6.9 µM; in assay [2], 72.8 µM; in assay [3], greater than 100 µM.

In the case of `O=C(OC1COc2ccccc2C1)c1cc(O)c(O)c(O)c1` (centres undefined), the IC50 in assay [1] was 6.1 µM; in assay [4], 2.6 µM; in assay [2], greater than 100 µM; in assay [3], greater than 100 µM.

Turning to `O=C(OC1COc2cc(O)ccc2C1)c1cc(O)c(O)c(O)c1` (centres undefined), the results for the IC50 in assay [1], in assay [2] and in assay [3] were 7.6 µM, 36.3 µM and 30.8 µM, respectively.
